Structures can show the parent of a compound that is named as a salt.

Usually IC50 stands for the midpoint of a concentration-inhibition curve. The AUC is concentration integrated over time. Read a low AUC as less exposure. By Cmax is commonly meant the maximum level reached in the sampled fluid or tissue. A word on the Vd: it is the apparent volume that relates the amount in the body to the concentration in plasma or blood. A low value points to confinement near the circulation. One may read the clearance as the rate of elimination divided by the concentration. A lower clearance goes with a low capacity for elimination. By half-life is commonly meant the time needed for the level to fall by half in the phase considered. Read a low half-life as fast loss.

Data set [1] concerns SJSA-1. The experiment in a line: Cell proliferation (Alamar Blue) assay, SJSA-1. As to conditions: SJSA-1 cells, 24 h treatment. In kind it is cell-based, human. The protocol: (§1) A cell viability assay was performed to assess the potency of the compounds in human cancer cell lines 786-0 (renal cell carcinoma), SJSA-1 (osteosarcoma), and/or A431 (epidermoid carcinoma). Additional cell lines, such as pancreatic cancer cell lines (e.g., Panc 02.13, BxPC-3, Panc 12, Panc 02.03, Panc 6.03, PSN-1, HPAC, and Capan-1), prostate cancer cell lines (e.g., PC-3, DU145, 22Rv1, NCI-H660, BPH1, LNCaP, BM-1604, and MDA PCa 2b), etc., can be tested in a similar method.
(§2) Cells (SJSA-1, 786-0 and/or A431) were seeded (5000 cells/100 μL/well) in 96-well tissue culture plate and incubated at 37° C./5% CO2 for 16-24 hours. The cells were then treated with compounds (25 μL of 5×). The compound concentrations were 10-0.0005 μM prepared in 3-fold serial dilutions with final DMSO concentration of 1%. The plates were then incubated for 24h at 37° C./5% CO2 in a moist environment. Then Alamar Blue™ reagent (final concentration 1×-12.5 μL) was added to each well and incubated for 1.5 hours at 37° C./5% CO2. The plates were read on fluorescence reader at 540 nm excitation and 590 nm emission wavelengths. The IC50 values were subsequently determined using a sigmoidal dose-response curve (variable slope) in GraphPad Prism® 5 software.

Data set [2] concerns 786-O. The experiment in a line: Cell proliferation (Alamar Blue) assay, 786-O. It counts as cell-based, human. As to conditions: 786-O cells, 24 h treatment. The protocol: as §1, §2
On the technique in general: The colour change of resazurin is a common sign of viable cells or microbes.

Data set [3] concerns A549. The experiment in a line: Counter-screen in A549 (CellTiter Glo). It counts as cell-based, human. As to conditions: Homo sapiens, A549 cells, 96 hours. The protocol: Selected compounds were also assayed (counter-screened) in a human lung cancer cell line, A549, a less sensitive cell line to GPX4 inhibitors, as a control to assess differential activity. Cells at a density of 800-2,000 cells/well were seeded in 96-well plates and incubated at 37° C. overnight. A series of nine different concentrations of compound stocks (500×) were created by 3-fold serial dilution in DMSO. These compounds were further diluted in culture media and then added to cells so that the final DMSO concentration was equal to 0.25% or less. After 96 hours of incubation, 50 μL of CellTiter Glo reagent (Promega) was added to each well and luminescence was measured after 10 minutes using EnVision (PerkinElmer). RSL3 (a prototype GPX4 inhibitor, also known as RSL-3) was used as a reference compound titrated from top concentration of up to 30 μM. All compounds were tested initially from 30 µM as the top concentration in duplicates (range of 4.6 nM-30 μM). […] Luminescence from cells treated with DMSO alone was set as Max and % of inhibition was calculated as follows: Inhibition %=(Max-Sample value)/Max*100. Data was analyzed using XL-fit software (ID Business Solutions Ltd.). IC50, relative IC50, or % of top inhibition was calculated.
On the technique in general: A counterscreen serves to expose hits that act by an unwanted route or on another target.

Data set [4] has as its system A431. The experiment in a line: Cell proliferation (Alamar Blue) assay, A431. In kind it is cell-based, human. The following applies: 24 h treatment. The protocol: as §1, §2
Data set [5] is described as follows: Mouse IV pharmacokinetics. In kind it is in vivo, Balb/c mice. As to conditions: male, Balb/c, plasma; Mouse IV-PK (5 mg/kg). An excerpt: Institutional Animal Ethical Committee (IAEC) of Jubilant Biosys (IAEC/JDC/2019/188R (for Mice) and IAEC/JDC/2019/189R (for Rat) nominated by CPCSEA (Committee for the Purpose of Control and Supervision of Experiments on Animals) approved the mice and rat pharmacokinetic experiments. Male Balb/c mice (˜6-8 weeks old with body weight range of 22-25 g) and male SD rats (6-8 weeks old with body weight range of 200-250 g) were procured from Vivo Biotech, Hyderabad, India. Animals were quarantined in Jubilant Biosys Animal House for a period of 7 days with a 12:12 h light: dark cycles, and prior to the study the animals were stratified as per body weight.
A) Procedure for Mice: Intravenous, oral and intraperitoneal pharmacokinetics study was done at doses of 5, 20 and 10 mg/kg respectively at dose volume of 10 mL/Kg for PO and IP while 5 mL/kg for IV route. Sparse sampling was done and at each time point three mice were used for blood sampling (˜100 μL) were collected from retro-orbital plexus at 0.083 (Only for IV), 0.25, 0.5, 1, 2, 4, 8, 10 (only for PO) and 24 h. Blood samples collected in tubes containing K2.EDTA as anticoagulant and centrifuged for 5 min at 10,000 rpm in a refrigerated centrifuge (Biofuge, Heraeus, Germany) maintained at 4° C. for plasma separation.
Group I (IV) received test compound intravenously by tail vein at 5 mg/Kg in solution formulation prepared using 30% Kolliphore EL in WFI; dose volume: 5 mL/Kg; strength: 1 mg/mL.
Blood concentration-time data of test compound was analyzed by non-compartmental method using Phoenix WinNonlin Version 8.1.

The test system of data set [6] is KP4. The experiment in a line: Cell viability in KP4 (Table 4). In kind it is cell-based. As to conditions: Homo sapiens, KP-4; KP4 cells.
Setting [7] is: Homo sapiens, A-431, A431 cells.

`COc1cc2c(cc1OC)[C@@H](c1ccc(N3CCOCC3)cc1)N(C(=O)CCl)[C@@H](C)C2` [Compound 45]: the IC50 in data set [1] (Homo sapiens) is greater than 3 µM; in data set [2] (Homo sapiens, 786-0, 24 h), 5.89 µM; in data set [3], 4.74 µM.
Regarding `C#CC(=O)N1[C@@H](CCCC)Cc2cc(OC)ccc2[C@@H]1c1ccc(F)cc1` [Compound 12, 1-((1S,3S)-3-butyl-1-(4-fluorophenyl)-6-methoxy-3,4-dihydroisoquinolin-2(1H)-yl)prop-2-yn-1-one], in data set [4] (setting [7]), the midpoint of inhibition, the IC50, lay at 3.5 µM. In data set [1] (Homo sapiens), this compound registered an IC50 of 0.025 µM. Further, in data set [5], the AUC stood at 181 ng·h/mL, the Cmax was determined as 882 ng/mL, the Vd stood at 19.5 L/kg and the clearance worked out at 454 mL/min/kg. This compound also gave a half-life in data set [5] of 30 min. This compound also returned an IC50 in data set [2] (Homo sapiens, 786-0, 24 h) of 0.014 µM.
Regarding `COC(=O)c1ccc([C@H]2c3sccc3C[C@H](C(=O)OC)N2C(=O)CCl)cc1` [Compound 42], the IC50 in data set [6] turned out to be 0.0618 µM; in data set [3], 5.05 µM.
Turning to `COC(=O)c1ccc([C@@H]2c3sccc3C[C@H](C(=O)OC)N2C(=O)CCl)cc1` [Compound 43], the IC50 in data set [6] is 0.525 µM; in data set [3] it was 10.3 µM.
Consider `COc1cc2c(cc1OC)[C@H](c1ccc(N3CCOCC3)cc1)N(C(=O)CCl)[C@@H](C)C2` [Compound 44], for which the IC50 in data set [1] (Homo sapiens) came to 0.599 µM; in data set [2] (Homo sapiens, 786-0, 24 h), 0.592 µM; in data set [3], 6.58 µM.
Consider `C#CC(=O)N1[C@@H](CCCC)Cc2cc(OC)ccc2[C@@H]1c1ccc(Nc2cccnc2)cc1` [Compound 94, 1-[(1S,3S)-3-butyl-6-methoxy-1-{4-[(pyridin-3-yl)amino]phenyl}-1,2,3,4-tetrahydroisoquinolin-2-yl]prop-2-yn-1-one], for which the IC50 is greater than 10 µM in data set [4] (setting [7]); 0.047 µM in data set [1] (Homo sapiens); 0.108 µM in data set [2] (Homo sapiens, 786-0, 24 h).
Take `COc1ccc2c(c1)C[C@H](C)N(C(=O)CCl)[C@@H]2c1ccc(N2CCOCC2)cc1` [Compound 46]: the results for the IC50 in data set [1] (Homo sapiens) and in data set [3] were 2.56 µM and 3.83 µM, respectively.
Turning to `C#CC(=O)N1[C@@H](CCCC)Cc2cc(OC)ccc2[C@@H]1C12CC(N)(C1)C2` [Compound 76, 1-((1S,3S)-1-(3-aminobicyclo[1.1.1]pentan-1-yl)-3-butyl-6-methoxy-3,4-dihydroisoquinolin-2(1H)-yl)prop-2-yn-1-one], the IC50 was greater than 10 µM in data set [4] (setting [7]); 0.623 µM in data set [1] (Homo sapiens); 0.187 µM in data set [2] (Homo sapiens, 786-0, 24 h).
For `COc1ccc2c(c1)C[C@H](C)N(C(=O)CCl)[C@H]2c1ccc(N2CCOCC2)cc1` [Compound 47], the IC50 in data set [1] (Homo sapiens) was 0.329 µM; in data set [2], 0.259 µM; in data set [3] it was 6.58 µM.
Consider `CCCC[C@H]1Cc2cc(OC)ccc2[C@H](c2ccc(C(=O)NC3CCC3)cc2)N1C(=O)CCl` [Compound 13, 4-((1S,3S)-3-butyl-2-(2-chloroacetyl)-6-methoxy-1,2,3,4-tetrahydroisoquinolin-1-yl)-N-cyclobutylbenzamide], for which the IC50 turned out to be 3.6 µM in data set [4] (setting [7]); 0.005 µM in data set [1] (Homo sapiens); 0.002 µM in data set [2] (Homo sapiens, 786-0, 24 h).
For `C#CC(=O)N1[C@@H](CCCC)Cc2cc(OC)ccc2[C@@H]1c1ccc(NC23CC4CC(CC(C4)C2)C3)cc1` [Compound 101, 1-((1S,3S)-1-(4-(((3R,5R,7R)-adamantan-1-yl)amino)phenyl)-3-butyl-6-methoxy-3,4-dihydroisoquinolin-2(1H)-yl)prop-2-yn-1-one hydrochloride], the IC50 in data set [4] (A431 cells, hydrochloride) came to 6.87 µM; in data set [1] (hydrochloride), 0.0115 µM; in data set [2] (hydrochloride) it was 0.008 µM.
As to `C#CC(=O)N1[C@@H](CCCC)Cc2cc(OC)ccc2[C@@H]1c1ccc(CNC23CC4CC(CC(C4)C2)C3)cc1` [Compound 99], the IC50 in data set [4] (setting [7]) worked out at 2.77 µM; in data set [1] (Homo sapiens) it was 0.002 µM; in data set [2] (Homo sapiens, 786-0, 24 h), 0.002 µM.
`COC(=O)c1ccc([C@@H]2c3ccc(OC)cc3C[C@H](C(=O)OC)N2C(=O)CCl)cc1` [Compound 41]: the 50% inhibitory concentration (IC50) in data set [6] was 0.042 µM; in data set [3], 1.31 µM.
For `COC(=O)c1ccc([C@@H]2c3ccc(OC)cc3C[C@H](C)N2C(=O)CCl)cc1` [Compound 6, methyl 4-((1R,3S)-2-(2-chloroacetyl)-6-methoxy-3-methyl-1,2,3,4-tetrahydroisoquinolin-1-yl)benzoate], the IC50 was greater than 10 µM in data set [4] (setting [7]); 3.2 µM in data set [1] (Homo sapiens); 3 µM in data set [2] (Homo sapiens, 786-0, 24 h).
The matching figures for `COC(=O)c1ccc([C@H]2c3ccc(OC)cc3C[C@H](C)N2C(=O)CCl)cc1` [Compound 7, methyl 4-((1S,3S)-2-(2-chloroacetyl)-6-methoxy-3-methyl-1,2,3,4-tetrahydroisoquinolin-1-yl)benzoate]: 7.8 µM, 0.22 µM and 0.137 µM.
The matching figures for `C#CC(=O)N1C(c2ccnc(C)c2)c2ccc(OC)cc2C[C@@H]1CCCC` (stereo in doubt) [Compound 48, 1-((1S,3S)-3-butyl-6-methoxy-1-(2-methylpyridin-4-yl)-3,4-dihydroisoquinolin-2(1H)-yl)prop-2-yn-1-one]: 5 µM, 0.05 µM and 0.053 µM.
The matching figures for `COC(=O)c1ccc([C@@H]2c3ccccc3C[C@H](C(=O)OC)N2C(=O)CCl)cc1` [Compound 2, methyl (1R,3R)-2-(2-chloroacetyl)-1-(4-(methoxycarbonyl)phenyl)-1,2,3,4-tetrahydroisoquinoline-3-carboxylate]: 8.7 µM, 0.855 µM and 0.742 µM.
For `C#CC(=O)N1[C@@H](CCCC)Cc2cc(OC)ccc2[C@@H]1c1ccc(S(=O)(=O)NC2CCC2)cc1` [Compound 18, 4-((1S,3S)-3-butyl-6-methoxy-2-propioloyl-1,2,3,4-tetrahydroisoquinolin-1-yl)-N-cyclobutylbenzenesulfonamide], the concentration for half-maximal inhibition (IC50) in data set [4] (setting [7]) was 8.9 µM; in data set [1] (Homo sapiens), 0.008 µM; in data set [2] (Homo sapiens, 786-0, 24 h), 0.004 µM.

(Values after US20220002280A1, “COMPOUNDS AND METHODS OF USE” (Ferro Therapeutics, Inc., priority 2019, published 2022).)
